Experimental data from patent US20230227406A1, “MODULATORS OF E3 LIGASES” (Rekindle Therapeutics Inc., priority 2020, published 2023).

Legend:
WWP1 = target: T1, WWP1 (Homo sapiens, UniProt Q9H0M0); test: In vitro WWP1-dependent ubiquitination of PTEN, western blot and LC-MS/MS; assay type: biochemical; details: 2 hours, indicated doses of inhibitor
T1 construct: purchased Ubiquigent 63-0034-025/30033/D
Description: In vitro ubiquitination reactions were carried out for 2 hours using the indicated doses of inhibitor. Increasing doses of inhibitor block PTEN substrate ubiquitination, which correlates with remaining free ubiquitin. The “0” concentration is DMSO only (0.5%, same as was used for compound doses). No E1 and No E3 negative controls are present (only free ubiquitin present). Analysis occurred by western blot using an anti-ubiquitin antibody. A fraction of these samples was digested with Trypsin/LysC and labeled with TMT quantification reagents prior to LC-MS/MS analysis.
In vitro ubiquitination reactions were carried out for 2 hours using the indicated doses of inhibitor. Increasing doses of inhibitor block PTEN substrate ubiquitination, which correlates with remaining free ubiquitin. The “0” concentration is DMSO only (0.5%, same as was used for compound doses). No E1 and No E3 negative controls are present (only free ubiquitin present). Analysis occurred by western blot using an anti-ubiquitin antibody.

PD-L1 [1] = test: Western blot of PD-L1 in Hs578T cells; assay type: cell-based, human; details: 48 hours, indicated concentrations of compound
Description: Hs578T cells (human triple negative breast cancer) were treated with the indicated concentration of COMPOUND 1 for 48 hours prior to harvesting. The “0” concentration is DMSO only (0.5%, same as was used for compound doses). […] Analysis occurred via western blot using the indicated antibodies. Quantification by densitometry of the bands from the western blot are presented for PD-L1/Vinculin (loading control) in the absence of interferon gamma, and glycosylated/non-glycosylated PD-L1 in the presence of interferon gamma.
(§1) The data presented here are consistent with the previous replicate in Hs578T cells, and the observation is preserved in another TNBC cell line, BT-20. COMPOUND 1 increases PD-L1 levels and the glycosylated PD-L1/non-glycosylated PD-L1 ratio. Methods are the same as the previous replicate, using the indicated doses.
Hs578T cells (human triple negative breast cancer) were treated with the indicated concentration of COMPOUND 6 for 48 hours before harvesting. The “0” concentration is DMSO only (0.5%, same as was used for compound doses). […] Analysis occurred via western blot using the indicated antibodies. PD-L1 protein levels were reduced relative to the vinculin loading control upon compound treatment. This effect is observed in the presence and absence of interferon gamma (IFN, 25 ng/mL in cell culture media during the drug treatment).
Hs578T cells (human triple negative breast cancer) were treated with the indicated concentration of COMPOUND 7 for 48 hours prior to harvesting. The “0” concentration is DMSO only (0.5%, same as was used for compound doses). […] Analysis occurred via western blot using the indicated antibodies. PD-L1 protein levels were reduced relative to the vinculin loading control upon 319-02 treatment.
The data presented here are consistent with the previous replicate in Hs578T cells. COMPOUND 7 reduces the PD-L1/vinculin loading control ratio. Methods are the same as the previous replicate, using the indicated doses.
Hs578T cells (human triple negative breast cancer) were treated with the indicated concentration of COMPOUND 8 for 48 hours and then harvested. The “0” concentration is DMSO only (0.5%, same as was used for compound doses). […] Analysis occurred via western blot using the indicated antibodies.
PD-L1-APC (BD Biosciences) and a matched isotype control were used to visualize PD-L1 cell surface expression by flow cytometry (1:250 dilution). As shown by western blot, the knockdown of WWP1 yielded increased PD-L1 protein levels, including an increase in the glycosylated band.
Total RNA was isolated using an RNeasy kit from Qiagen.

[2] = test system: phosphorylated AKT and phosphorylated Ribosomal Protein S6; test: Western blot of AKT and S6 phosphorylation in BT-20 cells; assay type: cell-based, human; details: indicated doses
Text: as §1, with “reduces the phospho-AKT/vinculin loading control” for “increases PD-L1 levels”, “phospho-S6/total S6 ratios.” for “the glycosylated PD-L1/non-glycosylated PD-L1 ratio.”
The data presented here are consistent with the previous replicate in Hs578T cells. COMPOUND 6 reduces the phospho-AKT/vinculin loading control and phospho-S6/total S6 ratios in BT-20 cells. Methods are the same as the previous replicate, using the indicated doses.

PD-L1 [3] = test: Western blot of PD-L1 in BT-20 cells; assay type: cell-based, human; details: indicated doses
Text: as §1
The data presented here are consistent with the previous replicate in Hs578T cells. COMPOUND 6 reduces the PD-L1/vinculin loading control ratio in BT-20 cells. […] Methods are the same as the previous replicate, using the indicated doses.

T1 sequence (Q9H0M0 whole entry): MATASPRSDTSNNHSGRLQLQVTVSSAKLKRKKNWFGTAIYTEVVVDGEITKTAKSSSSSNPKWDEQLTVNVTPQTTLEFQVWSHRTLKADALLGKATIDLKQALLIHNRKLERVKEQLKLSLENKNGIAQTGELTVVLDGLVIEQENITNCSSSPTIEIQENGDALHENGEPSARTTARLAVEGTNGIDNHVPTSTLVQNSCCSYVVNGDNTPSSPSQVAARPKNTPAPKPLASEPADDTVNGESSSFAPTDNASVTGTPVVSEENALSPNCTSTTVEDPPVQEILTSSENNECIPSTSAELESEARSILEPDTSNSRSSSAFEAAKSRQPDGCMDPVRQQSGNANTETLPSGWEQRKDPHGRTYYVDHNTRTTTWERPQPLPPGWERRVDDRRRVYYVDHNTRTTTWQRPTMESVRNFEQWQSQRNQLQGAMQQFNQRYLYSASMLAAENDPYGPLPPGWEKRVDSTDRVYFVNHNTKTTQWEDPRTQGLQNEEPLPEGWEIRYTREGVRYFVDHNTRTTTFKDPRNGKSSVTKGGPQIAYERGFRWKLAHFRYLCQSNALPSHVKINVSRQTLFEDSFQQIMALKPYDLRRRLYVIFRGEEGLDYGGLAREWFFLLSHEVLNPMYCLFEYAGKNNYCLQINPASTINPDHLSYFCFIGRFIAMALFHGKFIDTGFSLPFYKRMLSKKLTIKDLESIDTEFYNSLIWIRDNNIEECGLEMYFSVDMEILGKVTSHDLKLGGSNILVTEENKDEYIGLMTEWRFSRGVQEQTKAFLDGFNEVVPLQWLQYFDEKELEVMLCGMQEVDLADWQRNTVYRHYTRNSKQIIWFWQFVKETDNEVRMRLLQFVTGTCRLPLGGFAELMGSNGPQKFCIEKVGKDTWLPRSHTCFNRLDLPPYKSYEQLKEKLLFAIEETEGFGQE

Compound | WWP1 dependent ubiquitination of PTEN (western blot, anti-ubiquitin) (WWP1) | PD-L1 levels (relative to vinculin loading control) (PD-L1 [1]) | phospho-AKT/vinculin loading control ratio [2] | phospho-S6/total S6 ratio [2] | PD-L1 glycosylation (glycosylated/non-glycosylated PD-L1 ratio) (PD-L1 [3]) | PD-L1 levels (PD-L1/vinculin loading control ratio) (PD-L1 [3]) | PD-L1 glycosylation (glycosylated/non-glycosylated PD-L1 ratio) (PD-L1 [1])
C#CCN(CCO)C(=O)c1ccc2c(Cc3c[nH]c4ccccc34)c[nH]c2c1 [Compound 7, 3-((1H-indol-3-yl)methyl)-N-(2-hydroxyethyl)-N-(prop-2-yn-1-yl)-1H-indole-6-carboxamide] | Inhibits WWP1-Dependent Ubiquitination of PTEN, in a Dose-Dependent Manner | reduces | – | – | – | – | –
C#CCNC(=O)c1ccc2c(Cc3c[nH]c4ccccc34)c[nH]c2c1 [Compound 6, 3-((1H-indol-3-yl)methyl)-N-(prop-2-yn-1-yl)-1H-indole-6-carboxamide] | – | reduced | reduces | reduces | probably reduces | reduces | –
C#Cc1ccc2c(C=O)cn(-c3ccccc3)c2c1 [Compound 1, 6-ethynyl-1-phenyl-1H-indole-3-carbaldehyde] | – | increases | reduces | reduces | increases | increases | increases
